# From patent US11124537B2, “Inhibitors of glucocorticoid receptor” (ORIC Pharmaceuticals, Inc., priority 2015, dated 2021)
# Target: GR (Homo sapiens (Human), UniProt P04150)
# Experiment: In Vitro GR Luciferase Reporter Assay
# Type: cell-based
# Settings: CHO-K1-GR-MMTV-Luc reporter cells, antagonist assay, 10 nM Dexamethasone, 18-24 hours
# Excerpt: Example 4: In Vitro GR Luciferase Reporter Assay
# Cell Line: CHO-K1-GR-MMTV-Luc reporter cells
# Culture Media: DMEM (with phenol red)+10% FBS
# Assay Media: DMEM (without phenol red)+10% CSS
# Culture CHO-K1-GR-MMTV-Luc reporter cells in 15 cm plates in Culture Media at conditions less than 90% confluence.
# Prepare 200×DMSO 1:5 serial dilutions of control and test compounds in 96-well non-sterile V bottom plate in DMSO, 8 serial dilutions for each compound.
# Prepare 5× Assay Media diluted compound serial dilutions in 96-well non-sterile V bottom plate: Add 97.5 uL/well of Assay Media into 96-well then add 2.5 ul of 200× concentration of compounds and mix well.
# Seed cells for Antagonist Assay: […] CHO-K1-GR-MMTV-Luc reporter cells were seeded in a Corning 3707 flat clear bottom 384-well white TC plate in 20 ul of Assay Media containing 12.5 nM Dexamethasone (final concentration=10 nM).
# Add compounds: 5 ul of assay media diluted compounds were added to appropriate wells and followed a quick spin (1000 rpm, 10 sec) to bring media and cells to the bottom of plate. The plates were covered with SealMate film to avoid evaporation and placed in 37° C. incubator for approximately 18-24 hours.
# Read plates: Equilibrate appropriate amount of Promega OneGlo luciferase reagent to room temperature. Remove the plates from incubator and add 25 uL of OneGlo reagent/well by multiple channel pipette and read the plates with Tecan F500 luminometer within 3 minutes.
# The ability of the compounds disclosed herein to inhibit GR activity was quantified and the respective IC50 value was determined. Table 3 provides the cellular IC50 values of various substituted steroidal compounds disclosed herein.
# GR, sequence (P04150 whole entry): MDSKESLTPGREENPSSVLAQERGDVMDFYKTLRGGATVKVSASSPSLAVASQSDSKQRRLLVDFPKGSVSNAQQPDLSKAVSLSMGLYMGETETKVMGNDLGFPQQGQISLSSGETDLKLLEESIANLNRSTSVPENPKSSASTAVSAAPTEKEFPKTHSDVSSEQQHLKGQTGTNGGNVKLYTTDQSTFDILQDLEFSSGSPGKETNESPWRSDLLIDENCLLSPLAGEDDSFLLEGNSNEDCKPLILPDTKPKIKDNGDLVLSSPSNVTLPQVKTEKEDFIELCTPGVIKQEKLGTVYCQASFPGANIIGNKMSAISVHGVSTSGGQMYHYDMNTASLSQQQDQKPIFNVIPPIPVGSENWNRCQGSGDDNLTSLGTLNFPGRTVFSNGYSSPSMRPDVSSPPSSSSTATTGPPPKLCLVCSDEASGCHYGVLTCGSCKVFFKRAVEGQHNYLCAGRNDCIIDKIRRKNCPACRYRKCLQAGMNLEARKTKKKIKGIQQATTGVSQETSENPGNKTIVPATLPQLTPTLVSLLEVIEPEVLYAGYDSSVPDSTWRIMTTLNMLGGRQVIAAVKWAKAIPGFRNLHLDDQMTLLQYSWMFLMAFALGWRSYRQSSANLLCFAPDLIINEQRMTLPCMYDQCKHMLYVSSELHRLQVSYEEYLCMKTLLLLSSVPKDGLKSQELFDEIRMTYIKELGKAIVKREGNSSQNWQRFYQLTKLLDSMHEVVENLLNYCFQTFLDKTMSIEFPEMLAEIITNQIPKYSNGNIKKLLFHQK
row,IC50 [nM],SMILES
1,> 100,CC(C)Oc1cccc([C@H]2C[C@@]3(C)[C@@H](CC[C@@]3(O)C#CC(F)(F)F)[C@@H]3CCC4=CC(=O)CCC4=C32)c1
2,≤ 100,CN(C)c1c(F)cc([C@H]2C[C@@]3(C)[C@@H](CC[C@@]3(O)C#CC(C)(C)C)[C@@H]3CCC4=CC(=O)CCC4=C32)cc1F
3,≤ 100,Cc1ccc([C@H]2C[C@@]3(C)[C@@H](CC[C@@]3(O)C#CC(C)(C)C)[C@@H]3CCC4=CC(=O)CCC4=C32)cc1C
4,≤ 100,CC(C)(C)C#C[C@]1(O)CC[C@H]2[C@@H]3CCC4=CC(=O)CCC4=C3[C@@H](c3ccc(N4CCN(S(C)(=O)=O)CC4)cc3)C[C@@]21C [drawing 346]
5,≤ 100,COC(C)(C)C#C[C@]1(O)CC[C@H]2[C@@H]3CCC4=CC(=O)CCC4=C3[C@@H](c3ccc(N(C)CC(F)(F)F)cc3)C[C@@]21C
6,≤ 100,CN(C)c1ccc([C@H]2C[C@@]3(C)[C@@H](CC[C@@]3(O)C#CC(C)(C)C)[C@@H]3CCC4=CC(=O)CCC4=C32)c(F)c1F
7,≤ 100,CC(C)(C)C#C[C@]1(O)CC[C@H]2[C@@H]3CCC4=CC(=O)CCC4=C3[C@@H](c3ccc(NCC4CC4)cc3)C[C@@]21C
8,≤ 100,[2H]C([2H])([2H])N(c1ccc([C@H]2C[C@@]3(C)[C@@H](CC[C@@]3(O)C#CC(C)(C)C)[C@@H]3CCC4=CC(=O)CCC4=C32)cc1)C([2H])([2H])[2H]
9,≤ 100,COC(C)(C)C#C[C@]1(O)CC[C@H]2[C@@H]3CCC4=CC(=O)CCC4=C3[C@@H](c3ccc(N(C)C)cc3)C[C@@]21C
10,≤ 100,C[C@]12C[C@H](c3ccc4c(c3)OCO4)C3=C4CCC(=O)C=C4CC[C@H]3[C@@H]1CC[C@@]2(O)C#CC(F)(F)F
11,≤ 100,CC(C)(C)C#C[C@]1(O)CC[C@H]2[C@@H]3CCC4=CC(=O)CCC4=C3[C@@H](c3ccc(C(C)(C)C)cc3)C[C@@]21C [drawing 268]
12,> 100,Cc1ccc([C@H]2C[C@@]3(C)[C@@H](CC[C@@]3(O)C#CC(F)(F)F)[C@@H]3CCC4=CC(=O)CCC4=C32)cc1F
13,≤ 100,CN(C)c1ccc([C@H]2C[C@@]3(C)[C@@H](CC[C@@]3(O)C#Cc3ccc(Cl)cc3)[C@@H]3CCC4=CC(=O)CCC4=C32)cc1
14,≤ 100,CN(C)c1cc(F)c([C@H]2C[C@@]3(C)[C@@H](CC[C@@]3(O)C#CC(C)(C)C)[C@@H]3CCC4=CC(=O)CCC4=C32)c(F)c1
15,≤ 100,CN(C)c1ccc([C@H]2C[C@@]3(C)[C@@H](CC[C@@]3(O)C#Cc3ccccc3)[C@@H]3CCC4=CC(=O)CCC4=C32)cc1 [drawing 266]
16,> 100,Cc1c(F)cc([C@H]2C[C@@]3(C)[C@@H](CC[C@@]3(O)C#CC(C)(C)C)[C@@H]3CCC4=CC(=O)CCC4=C32)cc1F
17,≤ 100,C[C@]12C[C@H](c3ccc4c(c3)OCCO4)C3=C4CCC(=O)C=C4CC[C@H]3[C@@H]1CC[C@@]2(O)C#CC(F)(F)F
18,≤ 100,CN(CC(F)(F)F)c1ccc([C@H]2C[C@@]3(C)[C@@H](CC[C@@]3(O)C#CC(C)(C)C)[C@@H]3CCC4=CC(=O)CCC4=C32)cc1
19,> 100,COc1cc([C@H]2C[C@@]3(C)[C@@H](CC[C@@]3(O)C#CC(C)(C)C)[C@@H]3CCC4=CC(=O)CCC4=C32)ccc1N(C)C
20,≤ 100,CC(C)N(C)c1ccc([C@H]2C[C@@]3(C)[C@@H](CC[C@@]3(O)C#CC3(C)COC3)[C@@H]3CCC4=CC(=O)CCC4=C32)cc1
21,≤ 100,CC(C)(C)C#C[C@]1(O)CC[C@H]2[C@@H]3CCC4=CC(=O)CCC4=C3[C@@H](c3ccc(N4CCC[C@@H]4CO)cc3)C[C@@]21C [drawing 364]
22,> 100,C[C@@H]1C[C@H]2[C@@H]3CCC4=CC(=O)CCC4=C3[C@@H](c3ccc(N(C)C)cc3)C[C@]2(C)[C@]1(O)C#CC(C)(C)C [drawing 335]
23,≤ 100,CC(C)(C)C#C[C@]1(O)CC[C@H]2[C@@H]3CCC4=CC(=O)CCC4=C3[C@@H](c3ccc(C(C)(CO)CO)cc3)C[C@@]21C
24,≤ 100,CC(C)(C)C#C[C@]1(O)CC[C@H]2[C@@H]3CCC4=CC(=O)CCC4=C3[C@@H](c3ccc(C(C)(C)CO)cc3)C[C@@]21C

# Continued, compound first:
row,SMILES,IC50 [nM]
1,Cc1c(F)cc([C@H]2C[C@@]3(C)[C@@H](CC[C@@]3(O)C#Cc3ccc(S(C)(=O)=O)cc3)[C@@H]3CCC4=CC(=O)CCC4=C32)cc1F [drawing 293],≤ 100
2,CN(C)c1ccc([C@H]2C[C@@]3(C)[C@@H](CC[C@@]3(O)C#Cc3ccc(S(C)(=O)=O)cc3)[C@@H]3CCC4=CC(=O)CCC4=C32)cc1 [drawing 352],≤ 100
3,CC(C)C#C[C@]1(O)CC[C@H]2[C@@H]3CCC4=CC(=O)CCC4=C3[C@@H](c3ccc4c(c3)OCCO4)C[C@@]21C,≤ 100
4,Cc1c(F)cc([C@H]2C[C@@]3(C)[C@@H](CC[C@@]3(O)C#CC(F)(F)F)[C@@H]3CCC4=CC(=O)CCC4=C32)cc1F,> 100
5,COC(C)(C)C#C[C@]1(O)CC[C@H]2[C@@H]3CCC4=CC(=O)CCC4=C3[C@@H](c3ccc(N4CCN(C(=O)CO)CC4)cc3)C[C@@]21C,> 100
6,C[C@]12C[C@H](c3ccc4c(c3)OCCO4)C3=C4CCC(=O)C=C4CC[C@H]3[C@@H]1CC[C@@]2(O)C#CC1CC1,≤ 100
7,CC(C)(C)C#C[C@]1(O)CC[C@H]2[C@@H]3CCC4=CC(=O)CCC4=C3[C@@H](c3cc(F)c(-c4cncnc4)cc3F)C[C@@]21C,≤ 100
8,CC(C)N(C)c1ccc([C@H]2C[C@@]3(C)[C@@H](CC[C@@]3(O)C#Cc3ccc(S(C)(=O)=O)cc3)[C@@H]3CCC4=CC(=O)CCC4=C32)cc1,≤ 100
9,CCc1cc(F)c([C@H]2C[C@@]3(C)[C@@H](CC[C@@]3(O)C#CC(C)C)[C@@H]3CCC4=CC(=O)CCC4=C32)c(F)c1,≤ 100
10,COC(C)(C)C#C[C@]1(O)CC[C@H]2[C@@H]3CCC4=CC(=O)CCC4=C3[C@@H](c3ccc(N4CCS(=O)(=O)CC4)cc3)C[C@@]21C,> 100
11,CC(C)(C)C#C[C@]1(O)CC[C@H]2[C@@H]3CCC4=CC(=O)CCC4=C3[C@@H](c3cc(F)c(-c4ccncc4)cc3F)C[C@@]21C,≤ 100
12,CC(C)C#C[C@]1(O)CC[C@H]2[C@@H]3CCC4=CC(=O)CCC4=C3[C@@H](c3ccc4c(c3)OCO4)C[C@@]21C,≤ 100
13,CN(C)c1c(F)cc([C@H]2C[C@@]3(C)[C@@H](CC[C@@]3(O)C#CC(F)(F)F)[C@@H]3CCC4=CC(=O)CCC4=C32)cc1F,> 100
14,CC(C)C#C[C@]1(O)CC[C@H]2[C@@H]3CCC4=CC(=O)CCC4=C3[C@@H](c3c(F)cc(N4CCCC4)cc3F)C[C@@]21C,≤ 100
15,CC(C)C#C[C@]1(O)CC[C@H]2[C@@H]3CCC4=CC(=O)CCC4=C3[C@@H](c3ccc(N(C)C)c(F)c3F)C[C@@]21C,≤ 100
16,CCN(CC)c1cc(F)c([C@H]2C[C@@]3(C)[C@@H](CC[C@@]3(O)C#CC(C)C)[C@@H]3CCC4=CC(=O)CCC4=C32)c(F)c1,≤ 100
17,CC(C)C#C[C@]1(O)CC[C@H]2[C@@H]3CCC4=CC(=O)CCC4=C3[C@@H](c3cc(F)c(C(C)C)c(F)c3)C[C@@]21C [drawing 299],≤ 100
18,[2H]C([2H])([2H])C#C[C@]1(O)CC[C@H]2[C@@H]3CCC4=CC(=O)CCC4=C3[C@@H](c3cc(F)c(C)c(F)c3)C[C@@]21C,≤ 100
